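Compound exposure: 48 hours, 5 concentrations, 96-well plates. TGI: concentration producing complete growth inhibition.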
Assays:
Assay in all cases: inhibition of tumour cell growth, NCI panel, 48 h
[1] = tested on: 786-0 renal
[2] = tested on: A498 renal
[3] = tested on: A549 NSCLC
[4] = tested on: ACHN renal
[5] = tested on: CAKI-1 renal
[6] = tested on: CCRF-CEM leukemia
[7] = tested on: COLO 205 colon
[8] = tested on: DLD-1 colon
[9] = tested on: DMS 114 small cell lung
[10] = tested on: DMS 273 small cell lung
[11] = tested on: HCT-116 colon
[12] = tested on: HCT-15 colon
[13] = tested on: HL-60(TB) leukemia
[14] = tested on: HOP-18 NSCLC
[15] = tested on: HOP-62 NSCLC
[16] = tested on: HOP-92 NSCLC
[17] = tested on: HT29 colon
[18] = tested on: IGROV1 ovarian
[19] = tested on: K-562 leukemia
[20] = tested on: KM12 colon
[21] = tested on: KM20L2 colon
[22] = tested on: LOX IMVI melanoma
[23] = tested on: LXFL 529 NSCLC
[24] = tested on: M14 melanoma
[25] = tested on: M19-MEL melanoma
[26] = tested on: MALME-3M melanoma
[27] = tested on: MOLT-4 leukemia
[28] = tested on: NCI-H226 lung
[29] = tested on: NCI-H23 lung
[30] = tested on: NCI-H460 lung
[31] = tested on: NCI-H522 lung
[32] = tested on: OVCAR-3 ovarian
[33] = tested on: OVCAR-4 ovarian
[34] = tested on: OVCAR-8 ovarian
[35] = tested on: RPMI-8226 leukemia
[36] = tested on: RXF 393 renal
[37] = tested on: SF-268 CNS
[38] = tested on: SK-MEL-2 melanoma
[39] = tested on: SK-MEL-28 melanoma
[40] = tested on: SK-MEL-5 melanoma
[41] = tested on: SK-OV-3 ovarian
[42] = tested on: SN12C renal
[43] = tested on: SNB-19 CNS
[44] = tested on: SNB-75 CNS
[45] = tested on: SW-620 colon
[46] = tested on: TK-10 renal
[47] = tested on: U251 CNS
[48] = tested on: UACC-257 melanoma
[49] = tested on: UACC-62 melanoma
[50] = tested on: UO-31 renal
[51] = tested on: XF 498 CNS
[52] = tested on: EKVX NSCLC
[53] = tested on: HCC-2998 colon
[54] = tested on: OVCAR-5 ovarian
[55] = tested on: SF-295 CNS
[56] = tested on: SNB-78 CNS
[57] = tested on: SR leukemia

Measured: TGI

Cc1ccccc1NC(=O)C(=O)c1c(O)c2ccc(O)cc2oc1=O
not listed: [52] | [53] | [54] | [55] | [56] | [57]
> 100 µM: all other assays above

COC(=O)C(=O)C(C(=O)C(=O)Nc1ccc(OC)cc1[N+](=O)[O-])c1nc2ccc([N+](=O)[O-])cc2[nH]c1=O (centres undefined)
not listed: [10] | [38] | [39] | [40]
> 100 µM: all other assays above

From PubChem BioAssay (NCI)
